Legend:
[1] = target: T1, DspE (Erwinia amylovora, UniProt O54581); assay type: cell-based; details: current at 50 mV test pulse; ND96 saline, pH 7.5; channel block
T1 construct: full-length untagged ORF in pGH19, cRNA-injected Xenopus laevis oocytes; strain of oocyte clone not restated

[2] = target: T2, AvrE (Pseudomonas syringae group genomosp. 3, UniProt Q887C9); test: two-electrode voltage clamp, Xenopus oocytes; assay type: cell-based; details: current at 50 mV test pulse; ND96 saline, pH 7.5; channel block
T2 construct: full-length untagged ORF in pGH19, cRNA-injected Xenopus laevis oocytes
T2 sequence (Q887C9 whole entry): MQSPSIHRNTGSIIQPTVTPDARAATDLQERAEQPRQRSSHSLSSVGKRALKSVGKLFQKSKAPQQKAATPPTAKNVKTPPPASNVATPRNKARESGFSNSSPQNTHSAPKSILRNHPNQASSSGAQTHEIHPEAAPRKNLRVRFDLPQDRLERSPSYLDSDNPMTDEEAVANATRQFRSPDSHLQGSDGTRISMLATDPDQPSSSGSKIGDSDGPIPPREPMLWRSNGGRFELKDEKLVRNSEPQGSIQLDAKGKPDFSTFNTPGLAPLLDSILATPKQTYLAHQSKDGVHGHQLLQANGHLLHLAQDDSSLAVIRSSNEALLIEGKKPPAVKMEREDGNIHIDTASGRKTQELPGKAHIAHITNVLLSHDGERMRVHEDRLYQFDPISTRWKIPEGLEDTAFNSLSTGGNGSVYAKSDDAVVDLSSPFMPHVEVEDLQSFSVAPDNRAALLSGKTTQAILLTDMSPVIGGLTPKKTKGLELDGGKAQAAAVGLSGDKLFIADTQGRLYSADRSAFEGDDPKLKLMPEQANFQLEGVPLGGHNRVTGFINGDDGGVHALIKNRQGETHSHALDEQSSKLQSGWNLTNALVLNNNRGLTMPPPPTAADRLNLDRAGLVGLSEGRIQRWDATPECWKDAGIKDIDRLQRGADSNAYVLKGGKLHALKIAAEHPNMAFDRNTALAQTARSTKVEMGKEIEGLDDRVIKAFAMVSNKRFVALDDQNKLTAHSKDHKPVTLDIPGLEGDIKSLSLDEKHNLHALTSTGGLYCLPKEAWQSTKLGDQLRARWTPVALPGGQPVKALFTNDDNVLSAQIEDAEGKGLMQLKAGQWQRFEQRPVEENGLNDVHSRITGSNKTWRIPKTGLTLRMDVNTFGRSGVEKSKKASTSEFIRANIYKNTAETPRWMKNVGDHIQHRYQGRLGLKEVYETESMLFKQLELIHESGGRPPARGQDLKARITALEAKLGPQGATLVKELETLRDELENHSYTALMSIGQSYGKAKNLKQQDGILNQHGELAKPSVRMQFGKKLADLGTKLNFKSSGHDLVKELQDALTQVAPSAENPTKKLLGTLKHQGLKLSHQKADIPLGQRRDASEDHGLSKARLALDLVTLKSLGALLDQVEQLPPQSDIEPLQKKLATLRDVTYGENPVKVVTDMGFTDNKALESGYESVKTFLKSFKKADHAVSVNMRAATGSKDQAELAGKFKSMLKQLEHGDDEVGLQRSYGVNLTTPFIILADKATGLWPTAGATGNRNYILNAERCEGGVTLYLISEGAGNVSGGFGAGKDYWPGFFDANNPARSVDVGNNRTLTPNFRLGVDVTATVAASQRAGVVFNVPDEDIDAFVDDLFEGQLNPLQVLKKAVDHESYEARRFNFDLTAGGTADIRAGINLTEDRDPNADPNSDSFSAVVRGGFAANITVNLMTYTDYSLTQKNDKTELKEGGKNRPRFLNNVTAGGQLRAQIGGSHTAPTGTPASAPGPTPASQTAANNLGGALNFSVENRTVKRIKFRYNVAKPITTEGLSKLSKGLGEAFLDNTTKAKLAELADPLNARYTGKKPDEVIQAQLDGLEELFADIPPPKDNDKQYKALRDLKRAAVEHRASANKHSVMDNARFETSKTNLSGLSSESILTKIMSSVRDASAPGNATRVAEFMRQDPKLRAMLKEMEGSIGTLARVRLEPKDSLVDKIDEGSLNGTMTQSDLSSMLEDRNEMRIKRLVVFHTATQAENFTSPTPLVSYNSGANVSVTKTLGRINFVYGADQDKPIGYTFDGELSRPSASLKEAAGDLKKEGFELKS

[3] = target: T3, DspE (MBP–DspE) (Erwinia amylovora, UniProt O54581); test: liposome carboxyfluorescein release; assay type: biochemical; details: soybean liposomes; 0.05–0.15 µM DspE; 20 mM HEPES, 300 mM NaCl, pH 8.0; channel block
T3 construct: full-length DspE fused to MBP-His8-PPX-Flag; made in E. coli BL21(DE3)

[4] = target: T2, AvrE; test: oocyte fluorescent dye uptake; assay type: cell-based; details: 5 µg/ml fluorescein in ND96 saline; 20 ng avrE cRNA; permeation through channel

T1 sequence (O54581 whole entry): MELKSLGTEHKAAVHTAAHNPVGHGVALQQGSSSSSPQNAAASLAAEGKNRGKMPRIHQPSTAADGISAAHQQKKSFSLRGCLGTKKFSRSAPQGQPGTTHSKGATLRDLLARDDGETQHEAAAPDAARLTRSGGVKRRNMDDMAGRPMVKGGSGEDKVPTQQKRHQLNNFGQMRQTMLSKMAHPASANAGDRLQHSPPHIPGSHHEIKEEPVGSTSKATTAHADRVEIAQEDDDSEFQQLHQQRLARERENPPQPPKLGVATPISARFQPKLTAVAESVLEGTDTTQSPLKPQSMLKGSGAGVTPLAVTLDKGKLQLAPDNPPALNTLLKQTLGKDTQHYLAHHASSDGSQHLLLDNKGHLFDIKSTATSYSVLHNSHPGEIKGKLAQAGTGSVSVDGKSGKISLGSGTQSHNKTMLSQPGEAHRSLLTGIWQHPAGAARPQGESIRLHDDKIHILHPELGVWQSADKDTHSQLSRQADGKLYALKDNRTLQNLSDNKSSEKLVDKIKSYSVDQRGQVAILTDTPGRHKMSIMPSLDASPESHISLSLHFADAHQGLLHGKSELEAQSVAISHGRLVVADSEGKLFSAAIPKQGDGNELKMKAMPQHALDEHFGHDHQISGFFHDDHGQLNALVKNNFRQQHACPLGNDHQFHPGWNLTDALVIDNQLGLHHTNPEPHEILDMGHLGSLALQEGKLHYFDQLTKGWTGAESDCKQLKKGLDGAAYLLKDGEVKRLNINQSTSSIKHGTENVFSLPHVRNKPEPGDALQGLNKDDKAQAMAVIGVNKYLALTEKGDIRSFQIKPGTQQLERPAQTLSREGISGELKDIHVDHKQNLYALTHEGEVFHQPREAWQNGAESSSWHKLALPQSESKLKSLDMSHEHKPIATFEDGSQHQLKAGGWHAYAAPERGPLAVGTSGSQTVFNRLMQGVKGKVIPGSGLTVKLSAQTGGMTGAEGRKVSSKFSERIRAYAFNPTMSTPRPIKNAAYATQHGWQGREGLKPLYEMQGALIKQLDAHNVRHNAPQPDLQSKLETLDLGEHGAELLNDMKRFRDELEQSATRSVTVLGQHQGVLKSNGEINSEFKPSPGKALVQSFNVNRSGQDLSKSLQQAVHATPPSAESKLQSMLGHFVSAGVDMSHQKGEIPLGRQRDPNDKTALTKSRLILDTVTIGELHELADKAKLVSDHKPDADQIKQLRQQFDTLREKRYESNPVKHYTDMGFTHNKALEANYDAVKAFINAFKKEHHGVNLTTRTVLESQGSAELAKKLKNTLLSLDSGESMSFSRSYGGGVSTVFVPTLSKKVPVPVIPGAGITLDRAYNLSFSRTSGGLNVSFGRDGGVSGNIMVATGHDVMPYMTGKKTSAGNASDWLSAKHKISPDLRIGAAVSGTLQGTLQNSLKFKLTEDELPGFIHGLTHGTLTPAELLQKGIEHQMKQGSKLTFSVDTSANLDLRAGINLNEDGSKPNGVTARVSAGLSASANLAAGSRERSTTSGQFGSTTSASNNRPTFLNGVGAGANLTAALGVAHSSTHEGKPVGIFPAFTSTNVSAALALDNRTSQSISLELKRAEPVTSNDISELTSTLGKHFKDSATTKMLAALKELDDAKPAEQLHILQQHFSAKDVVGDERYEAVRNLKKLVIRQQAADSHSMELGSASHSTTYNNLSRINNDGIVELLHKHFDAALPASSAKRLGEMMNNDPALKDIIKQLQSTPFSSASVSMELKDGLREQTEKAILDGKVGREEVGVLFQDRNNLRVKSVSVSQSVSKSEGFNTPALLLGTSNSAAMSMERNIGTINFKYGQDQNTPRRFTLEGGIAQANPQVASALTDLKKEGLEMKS

| Compound | % inhibition at 10 mM [1] | % inhibition at 10 mM [2] | IC50 [3] | oocyte fluorescent dye uptake [4] |
| --- | --- | --- | --- | --- |
| PAMAM G1 | 71% | 93% | 31 µM |  |
| PAMAM G0 | 68% |  |  |  |
| O=C1OC2(c3ccc(O)cc3Oc3cc(O)ccc32)c2ccccc21 [fluorescein] |  |  |  | fluorescein entered oocytes expressing DspE or AvrE, whereas eGFP could not |
